This is an account of results in patent US8530650B2, “2, 5-diamino-substituted pyrido [4, 3-D] pyrimidines as autotaxin inhibitors against cancer” (MERCK PATENT GmbH, priority 2008, dated 2013).

The target of this assay is T1, recombinant autotaxin (Homo sapiens, UniProt Q13822).
T1 construct: made in house; host or cells: Hi5 insect cells (baculovirus)
Briefly: Autotaxin assay (Amplex Red, LPC substrate). Type of assay: biochemical. The following applies: 75 μM LPC, Amplex Red fluorescence, ten 1:3 dilutions starting at 30 μM. The protocol: Autotaxin activity is measured indirectly by means of Amplex Red Reagent. In this course, Amplex Red is measured as fluorogenic indicator for generated H2O2. Autotaxin converts substrate lysophosphatidylcholine (LPC) to phosphocholine and lysophosphatidylic acid (LPA). After the conversion phosphocholine is reacted with alkaline phosphatase to obtain inorganic phosphate and choline. During the next step choline is oxidized with choline oxidase to yield betaine, whereby H2O2 is generated. H2O2 reacts with Amplex Red Reagent in the presence of peroxidase (Horseradish peroxidase) in an 1:1 stochiometry and yields highly fluorescent resorufin. The generated fluorescence is measured in a reaction-dependent kinetic mode in order to enable subtraction of fluorescence signals of possible other fluorescent compounds that are not part of the reaction from total measured fluorescence.
1.5 μl of a standard solution or of the compounds of the invention are dissolved in 20 mM Hepes pH 7.2 with maximally 7.7% DMSO in individual concentrations. The resulting solution is pre-incubated together with 10 μl (16 ng) of highly purified recombinant autotaxin in a black 384-hole microtiter plate for 30 min at 22° C. Thereafter, the reaction is started through the addition of 5 μL-a-lysophosphatidylcholine (LPC), whereby the final concentration of LPC is 75 μM. The mixture is incubated for 90 min. at 37° C. After the incubation Amplex Red Reagent, peroxidase (Horseradish peroxidase) and choline oxidase are added. The fluorescence is immediately measured at a wavelength of 612 nm with an excitation wavelength of 485 nm in a “Tecan Ultra multimode” fluorescence reader. The activity of autotaxin is indirectly calculated via the amount of detected generated H2O2.
For IC50 analysis, ten serial 1:3 dilutions starting at 30 μM for each compound were run in duplicates.
IC50 values were calculated on normalized data. For normalization, control wells were added to each assay plate and the signal of uninhibited control wells was set to 100%, whereas the signal inhibited by 500 μM C14 LPA, (Avanti Polar Lipids, Cat# 857120P) was set to 0%. Curves were fitted and IC50 values calculated by the following model using proprietary analysis software: Y=Bottom+(100−Bottom)/(1+10^((LogIC50−X)*HillSlope))
Where X is the logarithm of concentration. Y is the response; Y starts at Bottom and goes to Top with a sigmoid shape.
Protein: Recombinant autotaxin (baculoviral Hi5 expression)
Substrate: L-a-lysophosphatidyl choline (chicken egg); Avanti Polar Lipids #830071 P
Standard: C14 LPA, Avanti Polar Lipids, Cat# 857120P
Detection Reagent Amplex Red Reagent; Invitrogen #A12222; dissolved in 1.923 ml of DMSO peroxidase Type VI-A (horseradish), Sigma #P6782; dissolved in 7.45 ml of test buffer, Choline Oxidase; Sigma #C5896; dissolved in 2.47 ml test buffer
Detection Reagent Mix: 1:100 dilution of Amplex Red Regent in test buffer
Test buffer: 200 mM Tris-HCl, Merck, Cat # 1.08219, pH 7.9; 0.1% BSA, lipid free, Roche Cat#775835

As for `CCN(CC)C(=O)C1CCCN(c2nccc3nc(NCc4ccccc4Cl)ncc23)C1` (centres unmarked) [Compound 91, 1-[2-(2-Chloro-benzylamino)-pyrido[4,3-d]pyrimidin-5-yl]-piperidine-3-carboxylic acid diethylamide], the concentration for half-maximal inhibition (IC50) is under 30 µM.

For `c1ccc(CNc2ncc3c(N4CCCC4)nccc3n2)cc1` [Compound 1, Benzyl-(5-pyrrolidin-1-yl-pyrido[4,3-d]pyrimidin-2-yl)-amine], the IC50 was under 30 µM.

Take `COCCNC(=O)C1CCN(c2nccc3nc(NCc4ccccc4Cl)ncc23)CC1` [Compound 70, 1-[2-(2-Chloro-benzylamino)-pyrido[4,3-d]pyrimidin-5-yl]-piperidine-4-carboxylic acid (2-methoxy-ethyl)-amide]: the IC50 is under 5 µM.

With `CCCNC(=O)C1CCCN(c2nccc3nc(NCc4ccccc4Cl)ncc23)C1` (centres unmarked) [Compound 85, 1-[2-(2-Chloro-benzylamino)-pyrido[4,3-d]pyrimidin-5-yl]-piperidine-3-carboxylic acid propylamide], the IC50 is under 30 µM.

Regarding `Clc1ccccc1CNc1ncc2c(NCCCN3CCCCC3)nccc2n1` [Compound 16, N2-(2-Chloro-benzyl)-N5-(3-piperidin-1-yl-propyl)-pyrido[4,3-d]pyrimidine-2,5-diamine], the IC50 was under 30 µM.

As for `COCCCNC(=O)C1CCN(c2nccc3nc(NCc4ccccc4Cl)ncc23)CC1` [Compound 73, 1-[2-(2-Chloro-benzylamino)-pyrido[4,3-d]pyrimidin-5-yl]-piperidine-4-carboxylic acid (3-methoxy-propyl)-amide], the IC50 was under 5 µM.

As to `COc1ccccc1CNc1ncc2c(Nc3ccc(F)cc3)nccc2n1` [Compound 33, N5-(4-Fluoro-phenyl)-N2-(2-methoxy-benzyl)-pyrido[4,3-d]pyrimidine-2,5-diamine], the IC50 was under 30 µM.

Consider `CCN(CC)CCNC(=O)C1CCN(c2nccc3nc(NCc4ccccc4Cl)ncc23)CC1` [Compound 96, 1-[2-(2-Chloro-benzylamino)-pyrido[4,3-d]pyrimidin-5-yl]-piperidine-4-carboxylic acid (2-diethylamino-ethyl)-amide], for which the IC50 was under 5 µM.

Turning to `CCOC(=O)CCNC(=O)C1CCN(c2nccc3nc(NCc4ccccc4Cl)ncc23)CC1` [Compound 101, 3-({1-[2-(2-Chloro-benzylamino)-pyrido[4,3-d]pyrimidin-5-yl]-piperidine-4-carbonyl}-amino)-propionic acid ethyl ester], the IC50 was under 30 µM.

As for `CCOCCCNC(=O)C1CCN(c2nccc3nc(NCc4ccccc4Cl)ncc23)CC1` [Compound 98, 1-[2-(2-Chloro-benzylamino)-pyrido[4,3-d]pyrimidin-5-yl]-piperidine-4-carboxylic acid (3-ethoxy-propyl)-amide], the IC50 is under 5 µM.

In the case of `CCOCCCNC(=O)C1CCN(c2nccc3nc(NCc4ccccc4OC)ncc23)CC1` [Compound 102, 1-[2-(2-Methoxy-benzylamino)-pyrido[4,3-d]pyrimidin-5-yl]-piperidine-4-carboxylic acid (3-ethoxy-propyl)-amide], the IC50 was under 30 µM.

Take `CC(=O)CCC(=O)N1CCN(c2nccc3nc(NCc4ccccc4Cl)ncc23)CC1` [Compound 123, 1-{4-[2-(2-Chloro-benzylamino)-pyrido[4,3-d]pyrimidin-5-yl]-piperazin-1-yl}-pentane-1,4-dione]: the IC50 is under 30 µM.

With `COc1ccccc1CNc1ncc2c(Nc3ccc(OC)c(OC)c3)nccc2n1` [Compound 38, N5-(3,4-Dimethoxy-phenyl)-N2-(2-methoxy-benzyl)-pyrido[4,3-d]pyrimidine-2,5-diamine], the IC50 is under 30 µM.

With `COc1ccccc1CNc1ncc2c(N3CCC(C(=O)NCc4ccco4)CC3)nccc2n1` [Compound 74, 1-[2-(2-Methoxy-benzylamino)-pyrido[4,3-d]pyrimidin-5-yl]-piperidine-4-carboxylic acid (furan-2-ylmethyl)-amide], the IC50 was under 30 µM.

`Fc1ccc(CNc2ncc3c(N4CCCC4)nccc3n2)cc1` [Compound 20, (4-Fluoro-benzyl)-(5-pyrrolidin-1-yl-pyrido[4,3-d]pyrimidin-2-yl)-amine]: the IC50 is under 30 µM.

Regarding `N[C@H]1CCN(CC(=O)N2CCN(c3nccc4nc(NCc5ccccc5Cl)ncc34)CC2)C1=O` [Compound 133, (S)-3-Amino-1-(2-{4-[2-(2-chloro-benzylamino)-pyrido[4,3-d]pyrimidin-5-yl]-piperazin-1-yl}-2-oxo-ethyl)-pyrrolidin-2-one], the IC50 was under 30 µM.

Regarding `COc1ccc(CNc2ncc3c(Nc4ccc(F)cc4F)nccc3n2)cc1` [Compound 52, N5-(2,4-Difluoro-phenyl)-N2-(4-methoxy-benzyl)-pyrido[4,3-d]pyrimidine-2,5-diamine], the IC50 is under 30 µM.

With `O=C(CCc1c[nH]cn1)N1CCN(c2nccc3nc(NCc4ccccc4Cl)ncc23)CC1` [Compound 122, 1-{4-[2-(2-Chloro-benzylamino)-pyrido[4,3-d]pyrimidin-5-yl]-piperazin-1-yl}-3-(1H-imidazol-4-yl)-propan-1-one], the concentration for half-maximal inhibition (IC50) was under 5 µM.

For `O=C(Cc1cccnc1)N1CCN(c2nccc3nc(NCc4ccccc4Cl)ncc23)CC1` [Compound 121, 1-{4-[2-(2-Chloro-benzylamino)-pyrido[4,3-d]pyrimidin-5-yl]-piperazin-1-yl}-2-pyridin-3-yl-ethanone], the half-inhibitory concentration (IC50) was under 5 µM.

As for `NC(=O)C1CCN(c2nccc3nc(NCc4ccccc4Cl)ncc23)CC1` [Compound 107, 1-[2-(2-Chloro-benzylamino)-pyrido[4,3-d]pyrimidin-5-yl]-piperidine-4-carboxylic acid amide], the IC50 was under 5 µM.

Turning to `Fc1ccc(N2CCN(c3nccc4nc(NCc5ccccc5Cl)ncc34)CC2)cc1` [Compound 106, (2-Chloro-benzyl)-{5-[4-(4-fluoro-phenyl)-piperazin-1-yl]-pyrido[4,3-d]pyrimidin-2-yl}-amine], the IC50 is under 5 µM.

On to `Cc1ccc(CNc2ncc3c(Nc4ccc(F)cc4C)nccc3n2)cc1` [Compound 19, N5-(4-Fluoro-2-methyl-phenyl)-N2-(4-methyl-benzyl)-pyrido[4,3-d]pyrimidine-2,5-diamine], for which the IC50 was under 30 µM.

Turning to `Clc1ccccc1CNc1ncc2c(NCCCN3CCCC3)nccc2n1` [Compound 17, N2-(2-Chloro-benzyl)-N5-(3-pyrrolidin-1-yl-propyl)-pyrido[4,3-d]pyrimidine-2,5-diamine], the IC50 is under 30 µM.

Consider `COCCNC(=O)C1CCN(c2nccc3nc(NCc4ccccc4OC)ncc23)CC1` [Compound 75, 1-[2-(2-Methoxy-benzylamino)-pyrido[4,3-d]pyrimidin-5-yl]-piperidine-4-carboxylic acid (2-methoxy-ethyl)-amide], for which the IC50 is under 30 µM.

`Clc1ccccc1CNc1ncc2c(NCCN3CCCCC3)nccc2n1` [Compound 18, N2-(2-Chloro-benzyl)-N5-(2-piperidin-1-yl-ethyl)-pyrido[4,3-d]pyrimidine-2,5-diamine]: the IC50 was under 30 µM.

Turning to `O=C(N1CCOCC1)N1CCN(c2nccc3nc(NCc4ccccc4Cl)ncc23)CC1` [Compound 116, {4-[2-(2-Chloro-benzylamino)-pyrido[4,3-d]pyrimidin-5-yl]-piperazin-1-yl}-morpholin-4-yl-methanone], the IC50 was under 5 µM.

By IC50 is commonly meant the midpoint of a concentration-inhibition curve.
